Here are results for 1 sequence from US10407712B2, “Methods, compositions and kits for high throughput kinase activity screening using mass spectrometry and stable isotopes” (President and Fellows of Harvard College, priority 2008, dated 2019).

Experiment [1] concerns HEK293 cell lysates. Nature of the experiment: KAYAK in vitro kinase assay, individual reactions, lysates of starved, insulin- or EGF-stimulated HEK293 cells. The class given is biochemical, human. How it is done:
For stimulation of HEK293 cells or HeLa lines, cells were treated with insulin (100 nM; 10-30 min) EGF (50 ng/ml; 10 min) or phorbol 12-myristate 13-acetate (PMA; 50 or 100 ng/ml; 10 -30 min) at 37° C. for the indicated times after overnight serum-starvation.
For cell lysis, the media were removed, and cells were washed with ice-cold phosphate-buffered saline (PBS) and lysed with ice-cold lysis buffer (10 mM K2HPO4 pH 7.5, 1 mM EDTA, 10 mM MgCl2, 50 mM β-glycerophosphate, 5 mM EGTA, 0.5% Nonidet P-40, 0.1% Brij 35, 0.1% deoxycholic acid, 1mM sodium orthovanadate, 1mM phenylmethyl-sulfonyl fluoride, 5 μg/ml leupeptin and 5 μg/ml pepstatin A). Lysates were centrifuged at 10,000 rpm for 10 min to remove cell debris, and clear supernatant was used for immunoblotting and in vitro kinase assays. Protein concentration was determined by Bradford assay (Biorad, Hercules, Calif.).
Peptides were synthesized, purified and quantified as described in Yu et al. 2009 Proc Natl Acad Sci USA 106: 11606-11611, hereby incorporated by reference herein in its entirety. Each substrate peptide (250 pmol) was mixed to a final concentration of 5 μM in the 50 μL reaction mixture. Alternatively, reactions were performed using 6 μg cell lysate aliquotes mixed to a final volume of 20 μl. Cell lysate or other kinase source was added to the substrate mixture in 25 mM Tris-Cl, pH 7.5, containing 5 mM ATP, 7.5 mM MgCl2, 0.2 mM EGTA, 7.5 mM β-glycerophosphate, 0.1 mM Na3VO4, and 0.1 mM DTT. The reaction was incubated at 25° C. for 60 min and then terminated by the addition of 100 μl of 1% trifluoroacetic acid (TFA) containing a known amount of an internal standard (typically 20 pmol). Alternatively, the reaction was incubated at 20° C. for 45 min before termination with TFA.
Forty-five individual in vitro kinase reaction mixtures were combined and desalted by using Sep-Pak C18 cartridge (Waters, Milford, Mass.). Phosphopeptides were enriched by immobilized metal ion chromatography (IMAC) with 20 μl of beads (Phos-Select iron affinity gel; Sigma, St. Louis, Mo.) and subsequently desalted by using Empore C18 solid phase extraction disks (3M, St. Paul, Minn.) as described previously.
Quantitation of the target peptide-internal standard ratios was performed by first constructing the extracted ion chromatogram for the most abundant charge state for each peptide using a ±10 ppm window. Chromatograms were integrated using Qual/Quan browser (Xcalibur 2.0.5, Thermo Fisher, San Jose, Calif.). Since the phosphorylated peptides generated from the in vitro kinase reactions were chemically identical to the internal standards, they were assumed to have the same ionization efficiency. Therefore, the amount of each phosphorylated peptide was calculated by direct ratio to the internal standard level.
To test substrate suitability in a multiplexed assay, the phosphorylation activities were measured using […] of each substrate peptide, 6 μg lysate, and 5 mM ATP in a plate format. Reactions proceeded for 60 minutes followed by acidification and the addition of isotope-labeled reference peptides. After pooling 45 samples, phosphopeptide enrichment was followed by liquid-chromatography (LC) separation and on-line peptide detection by high-resolution mass spectrometry.
The ability of the peptides to report specific changes in kinase activation after pathway stimulation was examined herein. Lysates from HEK293 cells were collected after insulin or EGF treatment and were compared to their activities in the serum-starved state using the KAYAK approach. Western blot analysis of lysates from cells in which the PI3K and MAPK pathways were activated, as indicated by elevated phospho-Akt and phospho-ERK1/2 levels, respectively, is shown in FIG. 1D. […]

For experiment [2], the target named is T1, activated, purified Akt (Homo sapiens, UniProt P31749).
T1 construct: Purified human active kinases of Akt1 (full length); purchased Cell Signaling Technology (Danvers, Mass.)
Nature of the experiment: In vitro peptide phosphorylation by purified Akt. The class given is biochemical. The note with it: 100 μM peptide, individually reacted. An excerpt: Reaction mixture was supplemented with 0.1% BSA. Other conditions were the same as in FIG. 10A.
Purified human active kinases of Akt1 (full length), extracellular signal-regulated kinase 1 (ERK1, 1-379), mitogen-activated protein kinase kinase 1 (MEK1, 1-393), 90 kDa ribosomal S6 kinases 1 (RSK1, 1-735), cAMP-dependent protein kinase (PKA) catalytic subunit-α (PKA Cα, 1-351), protein kinase Cα (PKCα, full length), epidermal growth factor (EGF) receptor (EGFR, 672-1210), platelet-derived growth factor (PDGF) receptor α (PDGFRα, 550-1090), vascular endothelial growth factor (VEGF) receptor 1 (VEGFR1 784-1338), Src (full length), casein kinase 2 (CK2, full length), Aurora A (1-403), AMP-activated protein kinase α1β1γ1 (AMPK α1β1γ1, full length), glycogen synthase kinase-3α (GSK-3α, 1-483) and MAP/microtubule affinity-regulating kinase 1 (MARK 1, full length) were obtained from Cell Signaling Technology (Danvers, Mass.). Cdc2/cyclin B1 (full length) and insulin-like growth factor (IGF)-I receptor (IGFIR, 959-1367) were obtained from Upstate (Temecula, Calif.).
Peptides were synthesized, purified and quantified as described in Yu et al. 2009 Proc Natl Acad Sci USA 106: 11606-11611, hereby incorporated by reference herein in its entirety. […] Alternatively, reactions were performed using 6 μg cell lysate aliquotes mixed to a final volume of 20 μl. […]

T1 sequence (P31749 whole entry): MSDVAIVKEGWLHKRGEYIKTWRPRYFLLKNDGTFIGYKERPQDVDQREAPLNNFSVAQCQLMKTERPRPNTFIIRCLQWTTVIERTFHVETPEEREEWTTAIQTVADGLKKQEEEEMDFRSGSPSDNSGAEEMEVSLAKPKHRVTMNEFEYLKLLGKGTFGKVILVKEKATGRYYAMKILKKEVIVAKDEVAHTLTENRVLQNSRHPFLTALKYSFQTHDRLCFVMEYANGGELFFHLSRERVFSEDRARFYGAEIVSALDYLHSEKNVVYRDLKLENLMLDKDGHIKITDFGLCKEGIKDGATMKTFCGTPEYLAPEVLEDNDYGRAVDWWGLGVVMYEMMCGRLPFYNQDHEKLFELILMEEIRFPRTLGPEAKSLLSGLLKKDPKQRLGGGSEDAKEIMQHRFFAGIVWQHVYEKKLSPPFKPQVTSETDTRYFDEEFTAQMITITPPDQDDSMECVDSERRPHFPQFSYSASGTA

Turning to “RIRTQSFSLQPFR (The sequence was designed and synthesized) [F6]”, the “E: changed phosphorylation in EGF stimulated condition” value in experiment [1] (EGF-stimulated compared to starved HEK293 cells) is “++ (A change of more than +4 and −4 fold is indicated by “++” and “−−”, respectively.)”. Further, the “I: changed phosphorylation in insulin stimulated condition” value in experiment [1] (insulin-stimulated compared to starved HEK293 cells) is “+ (A change of more +2 fold and −2 fold is indicated by “+” and “−”, respectively.)”. Besides, the “phosphorylation by Akt” value in experiment [2] is reported as “strong phosphorylation”.
